Laboratory results taken from patent US12226418B2, “Dosing regimen for the treatment of PI3K related disorders” (Incyte Corporation, priority 2018, dated 2025).

Tests used:
[1] = target: PI3Kδ (p110δ/p85α) (Homo sapiens (Human), UniProt O00329); test: PI3Kδ scintillation proximity assay; format: biochemical; conditions: 20 μM ATP; read-out: PI3Kδ SPA IC50
Excerpt: [γ-^33P]ATP (10 mCi/mL) was purchased from Perkin-Elmer (Waltham, MA). Lipid kinase substrate, D-myo-Phosphatidylinositol 4,5-bisphosphate (PtdIns(4,5)P2)D (+)-sn-1,2-di-O-octanoylglyceryl, 3-O-phospho linked (PIP2), CAS 204858-53-7, was purchased from Echelon Biosciences (Salt Lake City, UT). PI3Kδ (p110δ/p85α) was purchased from Millipore (Bedford, MA). ATP, MgCl2, DTT, EDTA, MOPS and CHAPS were purchased from Sigma-Aldrich (St. Louis, MO). Wheat Germ Agglutinin (WGA) YSi SPA Scintillation Beads was purchased from GE healthcare life sciences (Piscataway, NJ).
The kinase reaction was conducted in polystyrene 384-well matrix white plate from Thermo Fisher Scientific in a final volume of 25 μL. Inhibitors were first diluted serially in DMSO and added to the plate wells before the addition of other reaction components. The final concentration of DMSO in the assay was 0.5%. The PI3K assays were carried out at room temperature in 20 mM MOPS, pH 6.7, 10 mM MgCl2, 5 mM DTT and CHAPS 0.03%. Reactions were initiated by the addition of ATP, the final reaction mixture consisted of 20 μM PIP2, 20 μM ATP, 0.2 μCi [γ-^33P]ATP, 4 nM PI3Kδ. Reactions were incubated for 210 min and terminated by the addition of 40 μL SPA beads suspended in quench buffer: 150 mM potassium phosphate pH 8.0, 20% glycerol. 25 mM EDTA, 400 μM ATP. The final concentration of SPA beads was 1.0 mg/mL. After the plate sealing, plates were shaken overnight at room temperature and centrifuged at 1800 rpm for 10 minutes, the radioactivity of the product was determined by scintillation counting on Topcount (Perkin-Elmer). IC50 determination was performed by fitting the curve of percent control activity versus the log of the inhibitor concentration using the GraphPad Prism 3.0 software. IC50 data for the Examples is presented in Table B as determined by Assay A.

[2] = system: Pfeiffer cell line (diffuse large B cell lymphoma); test: Pfeiffer cell proliferation assay; format: cell-based, human; conditions: for IC50: Homo sapiens, Pfeiffer, [3H]-thymidine incorporation
Protocol: Pfeiffer cell line (diffuse large B cell lymphoma) are purchased from ATCC (Manassas, VA) and maintained in the culture medium recommended (RPMI and 10% FBS). To measure the anti-proliferation activity of the compounds, the Pfeiffer cells are plated with the culture medium (2×10^3 cells/well/per 200 μl) into 96-well ultra-low binding plates (Corning, Corning, NY), in the presence or absence of a concentration range of test compounds. After 3-4 days, [^3H]-thymidine (1 μCi/well) (PerkinElmer, Boston, MA) in PBS is then added to the cell culture for an additional 12 hours before the incorporated radioactivity is separated by filtration with water through GF/B filters (Packard Bioscience, Meridenj, CT) and measured by liquid scintillation counting with a TopCount (Packard Bioscience).

[3] = target: JAK1 (Homo sapiens (Human), UniProt P23458); test: JAK1 IC50, Assay A of U.S. Ser. No. 14/680,659 at 1 mM ATP; format: biochemical
Sequence of JAK1 (P23458 837-1142): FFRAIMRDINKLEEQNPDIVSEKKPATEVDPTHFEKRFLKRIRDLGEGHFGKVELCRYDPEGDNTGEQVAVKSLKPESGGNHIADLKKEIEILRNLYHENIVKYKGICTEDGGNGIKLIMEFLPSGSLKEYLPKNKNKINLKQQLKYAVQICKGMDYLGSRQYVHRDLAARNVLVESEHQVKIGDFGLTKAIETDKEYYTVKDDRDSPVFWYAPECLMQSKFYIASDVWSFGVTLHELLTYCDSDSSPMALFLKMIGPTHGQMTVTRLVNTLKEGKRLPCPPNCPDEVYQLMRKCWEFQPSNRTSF

[4] = target: JAK2 (Homo sapiens (Human), UniProt O60674); test: JAK2/JAK1 selectivity, Assay A at 1 mM ATP; format: biochemical; conditions: IC50 ratio
Sequence of JAK2 (O60674 828-1132): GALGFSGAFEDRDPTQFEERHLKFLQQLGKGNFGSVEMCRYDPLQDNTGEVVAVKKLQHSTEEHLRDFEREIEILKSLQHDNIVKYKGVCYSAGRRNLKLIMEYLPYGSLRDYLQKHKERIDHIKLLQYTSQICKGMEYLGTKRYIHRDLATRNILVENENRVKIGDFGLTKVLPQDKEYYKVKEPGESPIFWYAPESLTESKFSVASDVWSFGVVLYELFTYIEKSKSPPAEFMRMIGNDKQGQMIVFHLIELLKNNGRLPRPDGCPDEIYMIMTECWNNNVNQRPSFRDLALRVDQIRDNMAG

Sequence of PI3Kδ (p110δ/p85α) (O00329 whole entry): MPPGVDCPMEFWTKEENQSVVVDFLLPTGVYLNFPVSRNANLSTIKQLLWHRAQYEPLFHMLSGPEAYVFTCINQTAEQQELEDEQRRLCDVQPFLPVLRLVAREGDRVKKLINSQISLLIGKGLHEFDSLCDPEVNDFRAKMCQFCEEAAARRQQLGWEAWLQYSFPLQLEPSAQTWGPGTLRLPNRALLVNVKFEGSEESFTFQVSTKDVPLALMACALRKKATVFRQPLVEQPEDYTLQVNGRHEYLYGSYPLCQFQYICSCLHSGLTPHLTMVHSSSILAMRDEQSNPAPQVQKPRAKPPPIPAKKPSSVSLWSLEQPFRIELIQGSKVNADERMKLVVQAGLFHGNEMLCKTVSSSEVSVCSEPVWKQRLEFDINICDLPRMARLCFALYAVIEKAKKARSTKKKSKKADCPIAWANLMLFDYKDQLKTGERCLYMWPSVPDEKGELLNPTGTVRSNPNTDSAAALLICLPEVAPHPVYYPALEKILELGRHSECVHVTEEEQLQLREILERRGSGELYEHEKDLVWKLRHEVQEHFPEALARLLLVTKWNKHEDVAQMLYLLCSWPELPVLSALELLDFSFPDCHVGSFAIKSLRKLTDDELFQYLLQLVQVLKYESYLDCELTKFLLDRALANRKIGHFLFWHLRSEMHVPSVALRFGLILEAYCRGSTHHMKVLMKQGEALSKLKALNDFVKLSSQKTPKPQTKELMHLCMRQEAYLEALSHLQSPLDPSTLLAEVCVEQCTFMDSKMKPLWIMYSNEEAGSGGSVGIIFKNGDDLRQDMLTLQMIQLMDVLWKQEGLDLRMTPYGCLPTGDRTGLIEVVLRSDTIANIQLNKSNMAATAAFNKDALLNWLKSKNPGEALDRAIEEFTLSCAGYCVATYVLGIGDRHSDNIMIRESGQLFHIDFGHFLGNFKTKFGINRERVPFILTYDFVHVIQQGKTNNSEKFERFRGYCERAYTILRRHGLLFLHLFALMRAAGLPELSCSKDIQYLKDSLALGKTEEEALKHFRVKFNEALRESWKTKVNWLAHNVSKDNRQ
Sequence of PI3Kδ (p110δ/p85α) (P27986 whole entry partner): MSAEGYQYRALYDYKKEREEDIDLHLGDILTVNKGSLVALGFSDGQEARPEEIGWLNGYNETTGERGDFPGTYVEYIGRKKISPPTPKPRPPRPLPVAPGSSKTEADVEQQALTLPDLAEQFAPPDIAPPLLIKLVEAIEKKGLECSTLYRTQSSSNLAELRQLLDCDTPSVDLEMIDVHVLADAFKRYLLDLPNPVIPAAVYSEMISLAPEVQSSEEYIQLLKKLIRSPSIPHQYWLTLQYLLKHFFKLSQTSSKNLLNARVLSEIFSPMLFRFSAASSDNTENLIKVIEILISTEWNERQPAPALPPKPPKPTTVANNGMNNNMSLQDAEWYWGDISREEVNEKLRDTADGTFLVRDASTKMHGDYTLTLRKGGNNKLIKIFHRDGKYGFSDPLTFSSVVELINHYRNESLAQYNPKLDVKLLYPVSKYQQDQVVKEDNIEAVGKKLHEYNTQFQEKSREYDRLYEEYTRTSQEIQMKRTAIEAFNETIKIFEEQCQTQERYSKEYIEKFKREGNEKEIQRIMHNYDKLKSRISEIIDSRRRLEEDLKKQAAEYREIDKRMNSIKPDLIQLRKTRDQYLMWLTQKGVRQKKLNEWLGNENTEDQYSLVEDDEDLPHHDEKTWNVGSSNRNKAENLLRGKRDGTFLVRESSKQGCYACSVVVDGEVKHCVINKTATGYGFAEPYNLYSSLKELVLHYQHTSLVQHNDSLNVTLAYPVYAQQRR

SMILES | IC50 [3] [nM] | JAK2/ JAK1 [4] | also measured
CCOc1c(C(C)n2nc(C)c3c(N)ncnc32)cc(Cl)c(F)c1C1CNC(=O)C1 (single isomer, unassigned) [Example 1A, 4-{3-[1-(4-amino-3-methyl-1H-pyrazolo[3,4-d]pyrimidin-1-yl)ethyl]-5-chloro-2-ethoxy-6-fluorophenyl}pyrrolidin-2-one] |  |  | IC50 [1]: 50 to 200 nM
CCOc1c(C(C)n2nc(C)c3c(N)ncnc32)cc(Cl)c(F)c1C1CNC(=O)C1 (single isomer, unassigned) [Example 1B, 4-{3-[1-(4-amino-3-methyl-1H-pyrazolo[3,4-d]pyrimidin-1-yl)ethyl]-5-chloro-2-ethoxy-6-fluorophenyl}pyrrolidin-2-one] |  |  | IC50 [2]: ≤ 10 nM
CCOc1c(C(C)n2nc(C)c3c(N)ncnc32)cc(Cl)c(F)c1C1CNC(=O)C1 (single isomer, unassigned) [Example 1C] |  |  | sensitivity of Pfeiffer cancer cells to anti-proliferative effects in vitro [2]: sensitive
CCOc1c(C(C)n2nc(C)c3c(N)ncnc32)cc(Cl)c(F)c1C1CNC(=O)C1 (single isomer, unassigned) [Example 1D, 4-{3-[1-(4-amino-3-methyl-1H-pyrazolo[3,4-d]pyrimidin-1-yl)ethyl]-5-chloro-2-ethoxy-6-fluorophenyl}pyrrolidin-2-one] |  |  | IC50 [1]: 50 to 200 nM
CCOc1c(C(C)n2nc(C)c3c(N)ncnc32)cc(Cl)c(F)c1C1CNC(=O)O1 (single isomer, unassigned) [Example 2A, 5-{3-[1-(4-amino-3-methyl-1H-pyrazolo[3,4-d]pyrimidin-1-yl)ethyl]-5-chloro-2-ethoxy-6-fluorophenyl}-1,3-oxazolidin-2-one] |  |  | IC50 [1]: 50 to 200 nM
CCOc1c(C(C)n2nc(C)c3c(N)ncnc32)cc(Cl)c(F)c1C1CNC(=O)O1 (single isomer, unassigned) [Example 2B, 5-{3-[1-(4-amino-3-methyl-1H-pyrazolo[3,4-d]pyrimidin-1-yl)ethyl]-5-chloro-2-ethoxy-6-fluorophenyl}-1,3-oxazolidin-2-one] |  |  | IC50 [1]: 50 to 200 nM
CCOc1c(C(C)n2nc(C)c3c(N)ncnc32)cc(Cl)c(F)c1C1CNC(=O)O1 (single isomer, unassigned) [Example 2C, 5-{3-[1-(4-amino-3-methyl-1H-pyrazolo[3,4-d]pyrimidin-1-yl)ethyl]-5-chloro-2-ethoxy-6-fluorophenyl}-1,3-oxazolidin-2-one] |  |  | IC50 [2]: ≤ 10 nM
CCOc1c(C(C)n2nc(C)c3c(N)ncnc32)cc(Cl)c(F)c1C1CNC(=O)O1 (single isomer, unassigned) [Example 2D, 5-{3-[1-(4-amino-3-methyl-1H-pyrazolo[3,4-d]pyrimidin-1-yl)ethyl]-5-chloro-2-ethoxy-6-fluorophenyl}-1,3-oxazolidin-2-one] |  |  | IC50 [1]: > 500 nM
N#CCC1(n2cc(-c3ncnc4[nH]ccc34)cn2)CN([C@H]2CC[C@@H](Oc3cc(CCO)nc(C(F)(F)F)n3)CC2)C1 [Example 18, {1-(cis-4-{[6-(2-hydroxyethyl)-2-(trifluoromethyl)pyrimidin-4-yl]oxy}cyclohexyl)-3-[4-(7H-pyrrolo[2,3-d]pyrimidin-4-yl)-1H-pyrazol-1-yl]azetidin-3-yl}acetonitrile] | < 10 | >10 | 
CCNCc1cc(O[C@H]2CC[C@@H](N3CC(CC#N)(n4cc(-c5ncnc6[nH]ccc56)cn4)C3)CC2)nc(C(F)(F)F)c1 [Example 19, {1-(cis-4-{[4-[(ethylamino)methyl]-6-(trifluoromethyl)pyridin-2-yl]oxy}cyclohexyl)-3-[4-(7H-pyrrolo[2,3-d]pyrimidin-4-yl)-1H-pyrazol-1-yl]azetidin-3-yl}acetonitrile] | < 10 | >10 | 
CC(C)(O)c1cc(O[C@H]2CC[C@@H](N3CC(CC#N)(n4cc(-c5ncnc6[nH]ccc56)cn4)C3)CC2)nc(C(F)(F)F)c1 [Example 20, {1-(cis-4-{[4-(1-hydroxy-1-methylethyl)-6-(trifluoromethyl)pyridin-2-yl]oxy}cyclohexyl)-3-[4-(7H-pyrrolo[2,3-d]pyrimidin-4-yl)-1H-pyrazol-1-yl]azetidin-3-yl}acetonitrile] | < 10 | >10 | 
N#CCC1(n2cc(-c3ncnc4[nH]ccc34)cn2)CN([C@H]2CC[C@@H](Oc3cc(CN4CC[C@@H](O)C4)cc(C(F)(F)F)n3)CC2)C1 [Example 21, {1-(cis-4-{[4-{[(3R)-3-hydroxypyrrolidin-1-yl]methyl}-6-(trifluoromethyl)pyridin-2-yl]oxy}cyclohexyl)-3-[4-(7H-pyrrolo[2,3-d]pyrimidin-4-yl)-1H-pyrazol-1-yl]azetidin-3-yl}acetonitrile] | < 10 | >10 | 
N#CCC1(n2cc(-c3ncnc4[nH]ccc34)cn2)CN([C@H]2CC[C@@H](Oc3cc(CN4CC[C@H](O)C4)cc(C(F)(F)F)n3)CC2)C1 [Example 22, {1-(cis-4-{[4-{[(3S)-3-hydroxypyrrolidin-1-yl]methyl}-6-(trifluoromethyl)pyridin-2-yl]oxy}cyclohexyl)-3-[4-(7H-pyrrolo[2,3-d]pyrimidin-4-yl)-1H-pyrazol-1-yl]azetidin-3-yl}acetonitrile] | < 10 | >10 | 
C[C@@H](CO)NCc1cc(OC2CCN([C@H]3C[C@](CC#N)(n4cc(-c5ncnc6[nH]ccc56)cn4)C3)CC2)nc(C(F)(F)F)c1 [Example 23] | < 10 | >10 | 
C[C@@H](O)CNCc1cc(OC2CCN([C@H]3C[C@](CC#N)(n4cc(-c5ncnc6[nH]ccc56)cn4)C3)CC2)nc(C(F)(F)F)c1 [Example 24] | < 10 | >10 | 
C[C@H](O)CNCc1cc(OC2CCN([C@H]3C[C@](CC#N)(n4cc(-c5ncnc6[nH]ccc56)cn4)C3)CC2)nc(C(F)(F)F)c1 [Example 25] | < 10 | >10 | 
N#CC[C@]1(n2cc(-c3ncnc4[nH]ccc34)cn2)C[C@H](N2CCC(Oc3cc(CCO)cc(C(F)(F)F)n3)CC2)C1 [Example 26] | < 10 | >10 | 
